Assay results from patent US9321762B2, “Quinazoline compounds, method for preparing the same and use thereof” (DEVELOPMENT CENTER FOR BIOTECHNOLOGY, priority 2013, dated 2016).

Tests used:
B-Raf kinase = biological target: T1, B-Raf kinase (Homo sapiens, UniProt P15056); assay: B-Raf kinase assay ([33P] incorporation into MEK1(K97R)); assay type: biochemical; settings: class symbols; 8 μM ATP; read-out: IC50 against B-Raf kinase
T1 construct: purchased Upstate Biotechnology
Summary of the method: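 Recombinant B-Raf (5 ng) phosphorylating 500 ng MEK1(K97R) with 8 μM ATP plus [33P]ATP, pH 7.5 Tris buffer, 30 min at 30 °C. Radiolabel incorporation counted by filter-binding scintillation; IC50 from 3-fold serial dilutions run in duplicate.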

B-Raf(V600E) kinase = biological target: T2, B-Raf(V600E) kinase (Homo sapiens, UniProt P15056, V600E); assay: B-Raf(V600E) kinase assay ([33P] incorporation into MEK1(K97R)); assay type: biochemical; settings: class symbols; 8 μM ATP; read-out: IC50 against B-Raf(V600E) kinase
T2 construct: purchased Upstate Biotechnology
T2 sequence (P15056 whole entry V600E): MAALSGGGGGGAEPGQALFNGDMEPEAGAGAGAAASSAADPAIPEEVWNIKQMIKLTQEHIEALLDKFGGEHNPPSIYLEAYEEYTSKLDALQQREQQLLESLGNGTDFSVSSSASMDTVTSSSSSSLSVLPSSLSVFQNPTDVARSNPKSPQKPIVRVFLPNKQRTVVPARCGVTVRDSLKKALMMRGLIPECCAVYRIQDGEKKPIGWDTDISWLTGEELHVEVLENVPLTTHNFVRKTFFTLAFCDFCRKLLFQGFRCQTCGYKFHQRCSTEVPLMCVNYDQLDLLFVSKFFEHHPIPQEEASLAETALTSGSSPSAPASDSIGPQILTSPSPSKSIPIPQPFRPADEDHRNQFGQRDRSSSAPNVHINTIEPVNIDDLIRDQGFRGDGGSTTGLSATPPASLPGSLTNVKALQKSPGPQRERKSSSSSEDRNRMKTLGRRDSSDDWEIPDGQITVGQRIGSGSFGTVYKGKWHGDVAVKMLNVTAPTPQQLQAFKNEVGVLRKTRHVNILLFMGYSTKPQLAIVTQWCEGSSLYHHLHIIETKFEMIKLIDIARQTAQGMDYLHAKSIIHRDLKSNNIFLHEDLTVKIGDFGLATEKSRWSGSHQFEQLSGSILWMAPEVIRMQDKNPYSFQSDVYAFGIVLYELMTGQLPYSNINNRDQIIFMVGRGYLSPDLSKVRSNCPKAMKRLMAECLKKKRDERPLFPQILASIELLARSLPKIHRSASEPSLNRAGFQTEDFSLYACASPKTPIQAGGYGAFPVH
Summary of the method: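 Recombinant B-Raf(V600E) (5 ng) phosphorylating MEK1(K97R) (500 ng) with 8 μM ATP plus [33P]ATP in Tris/HCl pH 7.5 buffer, 30 min at 30 °C. Acid-stopped reactions were filter-captured and counted by scintillation; IC50 from 3-fold serial dilutions run in duplicate.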

C-Raf kinase = biological target: T3, C-Raf kinase (Homo sapiens, UniProt P04049); assay: C-Raf kinase assay ([33P] incorporation into MEK1(K97R)); assay type: biochemical; settings: class symbols; 8 μM ATP; read-out: IC50 against C-Raf kinase
T3 construct: purchased Upstate Biotechnology
T3 sequence (P04049 whole entry): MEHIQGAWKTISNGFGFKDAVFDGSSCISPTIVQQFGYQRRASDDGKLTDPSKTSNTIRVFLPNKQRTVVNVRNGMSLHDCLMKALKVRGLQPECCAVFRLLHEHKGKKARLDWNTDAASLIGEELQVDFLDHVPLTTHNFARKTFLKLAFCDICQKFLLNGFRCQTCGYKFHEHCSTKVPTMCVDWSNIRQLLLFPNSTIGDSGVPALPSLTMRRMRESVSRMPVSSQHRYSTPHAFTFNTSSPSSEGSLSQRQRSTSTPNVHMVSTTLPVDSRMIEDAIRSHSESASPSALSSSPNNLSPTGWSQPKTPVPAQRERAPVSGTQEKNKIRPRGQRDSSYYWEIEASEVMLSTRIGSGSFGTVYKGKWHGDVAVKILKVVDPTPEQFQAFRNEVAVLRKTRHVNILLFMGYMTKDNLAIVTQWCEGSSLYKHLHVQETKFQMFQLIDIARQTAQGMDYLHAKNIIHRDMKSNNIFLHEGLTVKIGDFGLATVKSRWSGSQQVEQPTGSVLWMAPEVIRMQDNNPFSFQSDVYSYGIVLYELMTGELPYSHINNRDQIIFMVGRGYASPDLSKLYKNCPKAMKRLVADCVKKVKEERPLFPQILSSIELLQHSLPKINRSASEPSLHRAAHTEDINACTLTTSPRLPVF
Summary of the method: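 Recombinant C-Raf (2 ng) phosphorylated MEK1(K97R) (500 ng) with 8 μM ATP plus [33P]ATP in Tris pH 7.5 buffer for 30 min at 30 °C. Reactions were stopped with phosphoric acid, filtered and counted by scintillation. IC50 values came from 3-fold serial dilutions run in duplicate.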

VEGFR2 kinase = biological target: T4, VEGFR2 kinase (Homo sapiens, UniProt P35968); assay: VEGFR2 radiometric kinase assay; assay type: biochemical; settings: given as bound; 100 μM ATP; read-out: Inhibition activity, IC50 VEGFR2
T4 construct: VEGFR2 kinase domain alone, Millipore; purchased Millipore
T4 sequence (P35968 834-1162 limits assumed): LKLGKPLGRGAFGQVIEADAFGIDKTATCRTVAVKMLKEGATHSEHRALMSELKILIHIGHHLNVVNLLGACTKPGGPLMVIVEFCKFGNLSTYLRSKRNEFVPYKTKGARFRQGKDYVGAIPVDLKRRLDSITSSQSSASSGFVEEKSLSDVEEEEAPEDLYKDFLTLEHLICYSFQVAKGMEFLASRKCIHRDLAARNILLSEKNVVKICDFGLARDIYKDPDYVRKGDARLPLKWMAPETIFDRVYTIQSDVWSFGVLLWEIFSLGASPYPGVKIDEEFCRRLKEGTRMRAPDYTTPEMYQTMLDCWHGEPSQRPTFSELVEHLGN
Summary of the method: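 Recombinant human VEGFR2 kinase domain (6.25 ng) phosphorylating poly(Glu-Tyr) 4:1 with 100 μM ATP plus [33P]ATP, in MOPS buffer pH 7.0, for 30 min at 30° C. Phosphoric-acid-stopped reactions were filter-captured and counted by scintillation for inhibition and IC50.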

EGFR kinase = biological target: T5, EGFR kinase (Homo sapiens, UniProt P00533); assay: EGFR radiometric kinase assay; assay type: biochemical; settings: given as bound; 100 μM ATP; read-out: Inhibition activity, IC50 EGFR
T5 construct: EGFR kinase domain alone, Millipore; purchased Millipore
T5 sequence (P00533 712-979 limits assumed): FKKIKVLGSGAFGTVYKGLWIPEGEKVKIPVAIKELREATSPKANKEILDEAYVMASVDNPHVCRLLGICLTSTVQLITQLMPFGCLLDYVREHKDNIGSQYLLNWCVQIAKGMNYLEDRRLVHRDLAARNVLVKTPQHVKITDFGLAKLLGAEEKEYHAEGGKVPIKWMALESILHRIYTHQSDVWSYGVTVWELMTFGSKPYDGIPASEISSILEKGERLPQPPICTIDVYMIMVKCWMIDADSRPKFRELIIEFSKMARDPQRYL
Summary of the method: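 Recombinant EGFR kinase domain (25 ng) with poly(Glu-Tyr) substrate in pH 7.0 MOPS buffer with 10 mM MnCl2, 100 μM ATP plus [^33P]ATP. Reaction 30 min at 30 °C, stopped with phosphoric acid; filter-bound radioactivity counted by scintillation.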

[1] = tested on: A375 melanoma cells and COLO205 colon cancer cells; assay: Cell proliferation assay (CellTiter-96); assay type: cell-based; settings: Homo sapiens; A375 or COLO205, 72 hours treatment; read-out: Cytotoxicity IC50 for A375 or COLO205
Summary of the method: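 B-Raf(V600E) mutant A375 and COLO205 cells in DMEM with 10% FCS, plated 24 h, then given varying compound concentrations for 72 h at 37 °C. Viability by CellTiter-96 Aqueous One reagent (4 h), absorbance at 490 nm.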

T1 sequence (P15056 whole entry): as the sequence (P15056 whole entry V600E) above, with E600V counted along it

With `CCCS(=O)(=O)Nc1ccc(F)c(Nc2ncnc3ccc(-c4cnccc4F)cc23)c1F` [compound 66, N-(2,4-difluoro-3-(6-(4-fluoropyridin-3-yl)quinazolin-4-ylamino)phenyl)propane-1-sulfonamide] as the molecule, how does the IC50 (B-Raf kinase) read?
The IC50 was less than 300 nM.

And the IC50 (B-Raf(V600E) kinase)?
The IC50 was less than 300 nM.

And the IC50 (C-Raf kinase)?
The IC50 was less than 300 nM.

And the IC50 (VEGFR2 kinase)?
The IC50 was greater than 3000 nM.

And the IC50 (EGFR kinase)?
Its IC50 is greater than 3000 nM.

What about the IC50 [1] of the same molecule?
The IC50 was less than 2000 nM.
